Toxic doses and inconclusive results are not listed.
System: L1210 leukemia ip in BDF1 mice, survival T/C
Experiment: NCI In Vivo Anticancer Drug Screen. Data for tumor model L1210 Leukemia (intraperitoneal) in B6D2F1 (BDF1) mice
Settings: endpoint: mean survival time, higher = longer survival
How it was run: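 Tumor cells were implanted, animals were treated, and survival was followed. The result divides the treated measurement by the vehicle-control measurement.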

[1] = dose: 100.0 mg/kg/injection, schedule: Q04DX003 (ip), vehicle: Klucel (hydroxypropylcellulose) (HPC)
[2] = dose: 200.0 mg/kg/injection, schedule: Q04DX003 (ip), vehicle: Klucel (hydroxypropylcellulose) (HPC)
[3] = dose: 400.0 mg/kg/injection, schedule: Q04DX003 (ip), vehicle: Klucel (hydroxypropylcellulose) (HPC)
[4] = dose: 100.0 mg/kg/injection, schedule: Q01DX009 (ip), vehicle: Klucel (hydroxypropylcellulose) (HPC)
[5] = dose: 200.0 mg/kg/injection, schedule: Q01DX009 (ip), vehicle: Klucel (hydroxypropylcellulose) (HPC)
[6] = dose: 400.0 mg/kg/injection, schedule: Q01DX009 (ip), vehicle: Klucel (hydroxypropylcellulose) (HPC)
[7] = dose: 100.0 mg/kg/injection, schedule: Q04DX003 (ip), vehicle: saline with Tween-80
[8] = dose: 200.0 mg/kg/injection, schedule: Q04DX003 (ip), vehicle: saline with Tween-80
[9] = dose: 400.0 mg/kg/injection, schedule: Q04DX003 (ip), vehicle: saline with Tween-80
[10] = dose: 50.0 mg/kg/injection, schedule: Q01DX009 (ip), vehicle: saline
[11] = dose: 100.0 mg/kg/injection, schedule: Q01DX001 (ip), vehicle: saline
[12] = dose: 200.0 mg/kg/injection, schedule: Q01DX001 (ip), vehicle: saline
[13] = dose: 400.0 mg/kg/injection, schedule: Q01DX001 (ip), vehicle: saline
[14] = dose: 50.0 mg/kg/injection, schedule: Q01DX001 (ip), vehicle: saline
[15] = dose: 100.0 mg/kg/injection, schedule: Q04DX003 (ip), vehicle: other
[16] = dose: 200.0 mg/kg/injection, schedule: Q04DX003 (ip), vehicle: other
[17] = dose: 400.0 mg/kg/injection, schedule: Q04DX003 (ip), vehicle: other

Cc1ccc(OCCOc2ccc([N+](=O)[O-])cc2)cc1
T/C [1]: 96 % of control | T/C [2]: 93 % of control | T/C [3]: 91 % of control

O=C(CBr)Nc1ccc(S(=O)(=O)F)cc1
T/C (dose: 2.34 mg/kg/injection, schedule: Q01DX009 (ip), vehicle: carboxymethylcellulose (CMC)): 94 % of control | T/C (dose: 4.68 mg/kg/injection, schedule: Q01DX009 (ip), vehicle: carboxymethylcellulose (CMC)): 86 % of control | T/C (dose: 9.37 mg/kg/injection, schedule: Q01DX009 (ip), vehicle: carboxymethylcellulose (CMC)): 86 % of control | T/C (dose: 18.75 mg/kg/injection, schedule: Q04DX003 (ip), vehicle: carboxymethylcellulose (CMC)): 101 % of control | T/C (dose: 75.0 mg/kg/injection, schedule: Q01DX001 (ip), vehicle: carboxymethylcellulose (CMC)): 94 % of control

CCOC(=O)/C=C(\C)OC
T/C [4]: 102 % of control | T/C [1]: 96 % of control | T/C [5]: 97 % of control | T/C [2]: 105 % of control | T/C [6]: 94 % of control | T/C [3]: 100 % of control

CC1=C(C)C2(C)C1(C)C1(C)NN=NC12c1ccccc1 (configuration not stated)
T/C [7]: 95 % of control | T/C [8]: 91 % of control | T/C [9]: 101 % of control

CN(C)C1CCC(C=C(C2CCC(CC(=O)O)CC2)C2CCC(CC(=O)O)CC2)CC1 (configuration not stated)
T/C (dose: 100.0 mg/kg/injection, schedule: Q04DX002 (ip), vehicle: saline with Tween-80): 111 % of control | T/C (dose: 200.0 mg/kg/injection, schedule: Q04DX002 (ip), vehicle: saline with Tween-80): 101 % of control | T/C (dose: 400.0 mg/kg/injection, schedule: Q04DX002 (ip), vehicle: saline with Tween-80): 105 % of control

CCCCCCCCCCCCCCCCCC1=NC(C)CC(C)(C)O1 (configuration not stated)
T/C [10]: 93 % of control | T/C [11]: 89 % of control | T/C (dose: 100.0 mg/kg/injection, schedule: Q01DX009 (ip), vehicle: saline): 94 % of control | T/C (dose: 100.0 mg/kg/injection, schedule: Q04DX003 (ip), vehicle: saline): 86 % of control | T/C [12]: 95 % of control | T/C (dose: 200.0 mg/kg/injection, schedule: Q01DX009 (ip), vehicle: saline): 96 % of control | T/C (dose: 200.0 mg/kg/injection, schedule: Q04DX003 (ip), vehicle: saline): 94 % of control | T/C [13]: 91 % of control

CCCCCCCCCCCCNC(=O)CC(O)(CC(=O)O)C(=O)O (configuration not stated)
T/C [1]: 96 % of control

COCCC(=O)COC
T/C [14]: 97 % of control | T/C [11]: 95 % of control | T/C [12]: 91 % of control | T/C [13]: 95 % of control

Cc1ccc(N=Nc2ccccn2)cc1
T/C (dose: 100.0 mg/kg/injection, schedule: Q04DX002 (ip), vehicle: Klucel (hydroxypropylcellulose) (HPC)): 104 % of control | T/C (dose: 200.0 mg/kg/injection, schedule: Q04DX002 (ip), vehicle: Klucel (hydroxypropylcellulose) (HPC)): 93 % of control | T/C (dose: 400.0 mg/kg/injection, schedule: Q04DX002 (ip), vehicle: Klucel (hydroxypropylcellulose) (HPC)): 93 % of control

Cn1ncc2[nH]c(=O)n(O)c(=O)c21
T/C [14]: 93 % of control | T/C [11]: 96 % of control | T/C [12]: 100 % of control | T/C [13]: 100 % of control

Cc1ccc(COC(=O)Nc2ccc(C)c(NC(=O)OCc3ccc(C)cc3)c2)cc1
T/C (dose: 100.0 mg/kg/injection, schedule: Q01DX009 (ip), vehicle: saline with Tween-80): 90 % of control | T/C (dose: 400.0 mg/kg/injection, schedule: Q01DX009 (ip), vehicle: saline with Tween-80): 90 % of control

Nc1ncnc2c(C(=O)O)c[nH]c12
T/C (dose: 100.0 mg/kg/injection, schedule: Q01DX001 (ip), vehicle: other): 98 % of control | T/C (dose: 200.0 mg/kg/injection, schedule: Q01DX001 (ip), vehicle: other): 110 % of control | T/C (dose: 400.0 mg/kg/injection, schedule: Q01DX001 (ip), vehicle: other): 111 % of control

CCN=C(c1ccc(NC(=O)c2ccc(C(=O)Nc3ccc(C(=NCC)N(CC)C(=O)Nc4ccc(OC)cc4)cc3)cc2)cc1)N(CC)C(=O)Nc1ccc(OC)cc1
T/C (dose: 2.25 mg/kg/injection, schedule: Q01DX015 (ip), vehicle: methylcellulose (MC)): 108 % of control | T/C (dose: 3.12 mg/kg/injection, schedule: Q01DX015 (ip), vehicle: methylcellulose (MC)): 101 % of control | T/C (dose: 4.5 mg/kg/injection, schedule: Q01DX015 (ip), vehicle: methylcellulose (MC)): 110 % of control | T/C (dose: 6.25 mg/kg/injection, schedule: Q01DX015 (ip), vehicle: methylcellulose (MC)): 124 % of control | T/C (dose: 12.5 mg/kg/injection, schedule: Q01DX015 (ip), vehicle: methylcellulose (MC)): 170 % of control

COC(=O)C1=CCC=CC1
T/C [7]: 102 % of control | T/C [8]: 96 % of control | T/C [9]: 93 % of control

CN(C)/N=N/c1ncn[nH]1
T/C (dose: 3.0 mg/kg/injection, schedule: Q01DX009 (ip), vehicle: saline): 117 % of control | T/C (dose: 6.0 mg/kg/injection, schedule: Q01DX009 (ip), vehicle: saline): 114 % of control | T/C (dose: 12.5 mg/kg/injection, schedule: Q01DX001 (ip), vehicle: saline): 104 % of control | T/C (dose: 12.5 mg/kg/injection, schedule: Q01DX009 (ip), vehicle: saline): 151 % of control | T/C (dose: 12.5 mg/kg/injection, schedule: Q04DX003 (ip), vehicle: saline): 120 % of control | T/C (dose: 22.0 mg/kg/injection, schedule: Q04DX003 (ip), vehicle: saline): 123 % of control | T/C (dose: 25.0 mg/kg/injection, schedule: Q01DX001 (ip), vehicle: saline): 108 % of control | T/C (dose: 25.0 mg/kg/injection, schedule: Q01DX009 (ip), vehicle: saline): 203 % of control | T/C [14]: 116 % of control | T/C [10]: 115 % of control | T/C [12]: 155 % of control | T/C [13]: 91 % of control

CN1CCC(=O)N1
T/C [11]: 100 % of control | T/C [12]: 100 % of control | T/C [13]: 98 % of control

O=C(OCC1CC1)c1ccc(N=Nc2ccccc2)cc1
T/C (dose: 75.0 mg/kg/injection, schedule: Q04DX002 (ip), vehicle: Klucel (hydroxypropylcellulose) (HPC)): 102 % of control | T/C (dose: 150.0 mg/kg/injection, schedule: Q04DX002 (ip), vehicle: Klucel (hydroxypropylcellulose) (HPC)): 108 % of control | T/C (dose: 300.0 mg/kg/injection, schedule: Q04DX002 (ip), vehicle: Klucel (hydroxypropylcellulose) (HPC)): 105 % of control

CC(=O)Nc1nccs1
T/C (dose: 50.0 mg/kg/injection, schedule: Q01DX009 (ip), vehicle: Klucel (hydroxypropylcellulose) (HPC)): 94 % of control | T/C [4]: 97 % of control | T/C [1]: 97 % of control | T/C [2]: 97 % of control

CCOC(=O)C(C(=O)OCC)N(C(=O)C(Cl)Cl)c1ccccc1
T/C [15]: 97 % of control | T/C [16]: 96 % of control | T/C [17]: 94 % of control

CN(C)C(=O)Nc1cccnc1
T/C (dose: 75.0 mg/kg/injection, schedule: Q04DX003 (ip), vehicle: saline): 97 % of control | T/C (dose: 150.0 mg/kg/injection, schedule: Q04DX003 (ip), vehicle: saline): 106 % of control | T/C (dose: 300.0 mg/kg/injection, schedule: Q04DX003 (ip), vehicle: saline): 101 % of control

O=C(CBr)NCCCCc1ccc(C(=O)O)cc1
T/C (dose: 10.0 mg/kg/injection, schedule: Q01DX001 (ip), vehicle: carboxymethylcellulose (CMC)): 92 % of control | T/C (dose: 20.0 mg/kg/injection, schedule: Q01DX001 (ip), vehicle: carboxymethylcellulose (CMC)): 100 % of control | T/C (dose: 40.0 mg/kg/injection, schedule: Q01DX001 (ip), vehicle: carboxymethylcellulose (CMC)): 103 % of control

O=c1[nH]cc(COCC(F)(F)F)c(=O)[nH]1
T/C (dose: 50.0 mg/kg/injection, schedule: Q01DX005 (ip), vehicle: other): 106 % of control | T/C (dose: 100.0 mg/kg/injection, schedule: Q01DX005 (ip), vehicle: other): 95 % of control | T/C (dose: 200.0 mg/kg/injection, schedule: Q01DX005 (ip), vehicle: other): 106 % of control

O=C(O)/C(=C\c1ccncc1)c1cccc2ccccc12
T/C [7]: 100 % of control | T/C [5]: 105 % of control | T/C [8]: 98 % of control | T/C [6]: 102 % of control | T/C [9]: 91 % of control

OCc1cc(Cl)ccc1O
T/C (dose: 100.0 mg/kg/injection, schedule: Q01DX009 (ip), vehicle: other): 91 % of control | T/C [15]: 103 % of control | T/C (dose: 200.0 mg/kg/injection, schedule: Q01DX009 (ip), vehicle: other): 120 % of control | T/C [16]: 95 % of control | T/C [17]: 93 % of control
